Measurements: patent US12582628B2, “Methods for treating breast cancer” (Olatec Therapeutics, Inc., priority 2019, dated 2026)
Where two headings read alike, the source gives them in different places.

Legend:
[1] = tested on: 4T1 TNBC; experiment: 4T1 TNBC orthotopic tumor model (tumor volume, survival); format: in vivo, mice (BALB/c)
Description: Tumor Model. Animal protocols were approved by the University of Colorado Health Sciences Center Animal Care and Use Committee. Female BALB/c mice, 6-8 weeks old (The Jackson Laboratory), were fed standard or dapansutrile (OLT1177®) diet (4), which was started on the day of 4T1 injection. 4T1 cells (2×10^5) were injected orthotopically into the mammary fat pad. Mice treated with dapansutrile were fed ad libidum with food pellets containing 7.5 g/kg dapansutrile, which started on the day of the 4T1 injection and continued for 15 days. Mice typically consume about 4 g of food per day, resulting in an approximate daily dose of 0 mg/kg/day for control groups and 1,000 mg/kg/day for the treatment groups. […] Control (“vehicle”) mice were fed with control food pellets without dapansutrile. Mice were sacrificed following 15 days after 4T1 injection.
(§1) Anti-PD-1 Combination Therapy. 4T1 cells were injected as described. After instillation of 4T1 cells, mice were started on dapansutrile (OLT1177®) diet or continued on standard diet as described and at day seven a neutralizing antibody against PD-1 (200 μg/mouse; BioXCell, West Lebanon, NH) was injected peritoneally. Mice were sacrificed following 15 days from the […] instillation.
as §1, with “Anti-IL-1α” for “Anti-PD-1”, “every three days” for “at day seven”, “anti-IL-1α” for “PD-1”, “XBioTech, Austin, TX)” for “BioXCell, West Lebanon, NH)”
4T1 TNBC mice were generated and fed a standard diet or a dapansutrile diet for 15 days. Tumors were measured on indicated days to generate a growth curve (FIG. 1C). Final tumor volume was taken following resection of the tumors (FIG. 1B).
To further assess the roles of IL-1α and IL-1β in driving 4T1 tumor progression, inventors treated mice with anti-IL-1α (200 μg/mouse), dapansutrile diet, and a combination of both. 4T1 TNBC mice were generated and fed a standard diet or a dapansutrile diet for 15 days. Mice were injected with anti-IL1α every 3 days as indicated. Subsequently, tumor volume was analyzed.
4T1 TNBC mice were generated and fed a standard diet or a dapansutrile diet for 15 days. Mice receiving a combination therapy were injected with anti-PD-1 on day 7 as indicated (FIG. 3A).

[2] = tested on: TSLP; experiment: Gene expression (qPCR) in primary 4T1 tumors: TSLP; format: in vivo, mice; settings: dapansutrile diet vs vehicle (FIG. 2D)
Description: (§2) Gene Expression. RNA was then isolated using Trizol (Thermo Fisher Scientific) and synthesized in cDNA using SuperScript III First-Strand (Thermo Fisher Scientific). Quantitative PCR (qPCR) was performed on cDNA using Power SYBR Green PCR master mix (Thermo Fisher Scientific) on Biorad CFX96 Real time system. Gene expression was assessed for Tslp, Tslpr, and Pdcd-11L1 mRNAs as indicated using the following primers: […]
(§3) Tumor Model. Animal protocols were approved by the University of Colorado Health Sciences Center Animal Care and Use Committee. Female BALB/c mice, 6-8 weeks old (The Jackson Laboratory), were fed standard or dapansutrile (OLT1177®) diet (4), which was started on the day of 4T1 injection. 4T1 cells (2×10^5) were injected orthotopically into the mammary fat pad. […]
(§4) Previous studies on the tumor-myeloid cell interactions in triple-negative breast cancer indicate that tumor-derived IL-1α promotes infiltrating myeloid cells to secrete TSLP (thymic stromal lymphopoietin), which in turn is critical for tumor progression at both primary and distant metastatic sites (15). To further evaluate the effects of blocking NLRP3 in 4T1 tumor progression, inventors quantified gene expression of TSLP and its associated receptor TSLPR in primary 4T1 tumors as measured by relative mRNA expression. […]

[3] = tested on: TSLPR; experiment: Gene expression (qPCR) in primary 4T1 tumors: TSLPR; format: in vivo, mice; settings: dapansutrile diet vs vehicle (FIG. 2E)
Description: as §2, §3, §4

[4] = tested on: TSLP; experiment: TSLP mRNA expression in IL-1α-stimulated MDA-468 cells; format: cell-based, human; settings: IL-1α 20 ng/mL, dapansutrile 10 μM, 24 hours, vs control (FIG. 2F)
Description: (§5) Cell Lines. The mammary carcinoma cell lines 4T1, E0771, and MDA-468 were obtained from ATCC (Manassas, VA). Cells were cultured in DMEM supplemented with 10% FBS, 100 units/mL penicillin, 0.1 mg/ml streptomycin. Cells were maintained in a humidified 5% CO2 atmosphere at 37° C.
(§6) In vitro. Tumor cell lines were adhered overnight at a concentration of 200,000 per well. The following day human recombinant IL-1α or IL-1β (R&D Systems, Minneapolis, MN) were added with or without dapansutrile (OLT1177®) and incubated for 24 hours. Cells were then lysed using TRIzol reagent (Thermo Fisher Scientific, Waltham, MA).
(§7) Gene Expression. […] Quantitative PCR (qPCR) was performed on cDNA using Power SYBR Green PCR master mix (Thermo Fisher Scientific) on Biorad CFX96 Real time system. Gene expression was assessed for Tslp, Tslpr, and Pdcd-11L1 mRNAs as indicated using the following primers: […]
as §4

[5] = tested on: TSLPR; experiment: TSLPR mRNA expression in IL-1α-stimulated MDA-468 cells; format: cell-based, human; settings: IL-1α 20 ng/mL, dapansutrile 10 μM, 24 hours, vs control (FIG. 2G)
Description: as §5, §6, §7, §4

[6] = tested on: PD-L1; experiment: Gene expression (qPCR) in 4T1 tumors: PD-L1; format: in vivo, mice; settings: dapansutrile diet vs standard diet (FIG. 3D)
Description: as §2
Tumor Model. Animal protocols were approved by the University of Colorado Health Sciences Center Animal Care and Use Committee. Female BALB/c mice, 6-8 weeks old (The Jackson Laboratory), were fed standard or dapansutrile (OLT1177®) diet (4), which was started on the day of 4T1 injection. 4T1 cells (2×10^5) were injected orthotopically into the mammary fat pad. Mice treated with dapansutrile were fed ad libidum with food pellets containing 7.5 g/kg dapansutrile, which started on the day of the 4T1 injection and continued for 15 days. Mice typically consume about 4 g of food per day, resulting in an approximate daily dose of 0 mg/kg/day for control groups and 1,000 mg/kg/day for the treatment groups. […] Control (“vehicle”) mice were fed with control food pellets without dapansutrile. Mice were sacrificed following 15 days after 4T1 injection. […]

[7] = tested on: PD-L1; experiment: PD-L1 mRNA expression in IL-1α-stimulated E0771 cells; format: cell-based, murine; settings: IL-1α 10 ng/mL, dapansutrile vs vehicle (FIG. 3E)
Description: as §5, §6, §2
In vitro analysis of the murine triple-negative breast cancer cell line E0771 was conducted to examine the effects of dapansutrile on PD-L1 expression levels following cell death signaling. IL-1α stimulation was used to simulate cell death signaling in the tumor-microenvironment. […]

[8] = tested on: IL-22; experiment: Splenocyte cytokine secretion (ELISA): IL-22; format: in vivo; settings: splenocytes of 4T1 tumor-bearing mice, LPS 10 μg/mL, 72 hours, vs vehicle (FIG. 4B)
Description: (§8) Splenocyte Cytokine Secretion. 4T1 cells were injected as described. Spleens from tumor-bearing mice were processed for cell culture through mechanical dissociation. Cells suspended in RPMI supplemented with 10% FBS, 100 units/mL penicillin, 0.1 mg/ml streptomycin and were plated at 5.0e^5 and stimulated with 10 μg/mL LPS. After 72 hours, supernatants were removed and cytokines were measured via ELISA (R&D Systems, Minneapolis, MN).
(§9) In this Example, 4T1 TNBC mice were generated and fed a standard diet or a dapansutrile diet for 15 days.

[9] = tested on: IFNγ; experiment: Splenocyte cytokine secretion (ELISA): IFNγ; format: in vivo; settings: splenocytes of 4T1 tumor-bearing mice, LPS 10 μg/mL, 72 hours, vs vehicle (FIG. 4C)
Description: as §8, §9

[10] = humans treated orally at 1000 mg/day; cited from earlier work
[11] = mice, 7.5 g/kg dapansutrile in food (about 1,000 mg/kg/day); nearly the same as human level; cited from earlier work
[12] = orally administered to healthy subjects; cited from earlier work
[13] = molecular target: NLRP3 inflammasome (Homo sapiens, UniProt Q96P20); settings: cited from earlier work
NLRP3 inflammasome, sequence (Q96P20 whole entry): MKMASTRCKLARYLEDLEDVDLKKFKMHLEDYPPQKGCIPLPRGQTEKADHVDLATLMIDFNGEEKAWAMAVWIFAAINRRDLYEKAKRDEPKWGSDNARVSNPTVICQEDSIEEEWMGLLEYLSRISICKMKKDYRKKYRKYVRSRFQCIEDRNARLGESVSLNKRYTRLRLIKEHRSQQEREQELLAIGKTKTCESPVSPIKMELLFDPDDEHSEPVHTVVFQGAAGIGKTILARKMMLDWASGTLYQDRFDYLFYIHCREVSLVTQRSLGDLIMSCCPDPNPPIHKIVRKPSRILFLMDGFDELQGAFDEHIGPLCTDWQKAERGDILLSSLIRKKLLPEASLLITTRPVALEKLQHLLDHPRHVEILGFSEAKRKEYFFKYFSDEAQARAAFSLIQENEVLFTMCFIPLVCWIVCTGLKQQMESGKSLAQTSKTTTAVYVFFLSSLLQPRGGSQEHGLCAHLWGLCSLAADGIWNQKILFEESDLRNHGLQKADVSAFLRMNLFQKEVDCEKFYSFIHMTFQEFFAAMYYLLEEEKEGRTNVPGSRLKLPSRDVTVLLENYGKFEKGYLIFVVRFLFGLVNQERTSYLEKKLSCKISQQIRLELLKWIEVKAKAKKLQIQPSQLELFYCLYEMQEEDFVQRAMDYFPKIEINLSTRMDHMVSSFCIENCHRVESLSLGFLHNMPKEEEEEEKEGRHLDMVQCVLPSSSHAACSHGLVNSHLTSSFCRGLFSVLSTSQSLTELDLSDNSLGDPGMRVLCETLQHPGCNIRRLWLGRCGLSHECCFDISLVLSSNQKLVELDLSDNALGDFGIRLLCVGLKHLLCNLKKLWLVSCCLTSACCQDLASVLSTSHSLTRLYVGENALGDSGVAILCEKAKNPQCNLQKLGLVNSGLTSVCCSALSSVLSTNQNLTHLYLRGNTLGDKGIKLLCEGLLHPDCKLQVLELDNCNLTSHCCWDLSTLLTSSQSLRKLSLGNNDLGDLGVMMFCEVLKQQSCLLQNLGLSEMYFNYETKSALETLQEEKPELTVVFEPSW

Structure (SMILES): CS(=O)(=O)CCC#N [dapansutrile, 3-methanesulfonyl-propionitrile]
- mice surviving beyond 30 days ([1]; Example 1, 4T1 TNBC mice on dapansutrile diet): half
- tumor volume ([1]; Example 1, 4T1 TNBC mice, dapansutrile diet 15 days vs standard diet, after resection (FIG. 1B)): significantly decreased tumor volume
- survival rates ([1]; Example 1, 4T1 TNBC mice, dapansutrile diet vs standard diet (FIG. 1D, n=10)): significantly higher survival rates
- tumor volumes ([1]; Example 2, 4T1 TNBC mice, 15 days, dapansutrile diet and/or anti-IL-1α 200 μg/mouse every 3 days, vs vehicle (FIGS. 2B, 2C)): significantly reduced tumor volumes
- tumor volume ([1]; Example 3, 4T1 TNBC mice, day 15 after resection, dapansutrile diet and/or anti-PD-1 200 μg/mouse on day 7, vs vehicle (FIG. 3B)): significant tumor reduction
- TSLP expression (relative mRNA) [2]: significantly lower
- TSLPR expression (relative mRNA) [3]: significantly lower
- TSLP expression (relative mRNA) [4]: significantly lower
- TSLPR expression (relative mRNA) [5]: significantly lower
- PD-L1 gene expression (relative mRNA) [6]: significantly less
- PD-L1 expression (relative mRNA) [7]: markedly lower
- IL-22 levels [8]: significantly reduced IL-22 levels
- IFNγ levels [9]: increased
- blood level [10]: 40000 ng/mL
- blood level [11]: ~40000 ng/mL
- safety [12]: safe
- NLRP3 inflammasome inhibition [13]: selectively inhibit
